# Literature values in US20110212960A1, “NEW COMPOUNDS FOR THE TREATMENT OF CNS DISORDER” (BOEHRINGER INGELHEIM INTERNATIONAL GMBH, priority 2009, published 2011).
# Columns and labels:
# Murine PDE9A = biological target: T1, Murine PDE9A (Mus musculus, UniProt O70628); settings: concentrations below 200 micromolar; cited from earlier work
# T1 sequence (O70628 1-534): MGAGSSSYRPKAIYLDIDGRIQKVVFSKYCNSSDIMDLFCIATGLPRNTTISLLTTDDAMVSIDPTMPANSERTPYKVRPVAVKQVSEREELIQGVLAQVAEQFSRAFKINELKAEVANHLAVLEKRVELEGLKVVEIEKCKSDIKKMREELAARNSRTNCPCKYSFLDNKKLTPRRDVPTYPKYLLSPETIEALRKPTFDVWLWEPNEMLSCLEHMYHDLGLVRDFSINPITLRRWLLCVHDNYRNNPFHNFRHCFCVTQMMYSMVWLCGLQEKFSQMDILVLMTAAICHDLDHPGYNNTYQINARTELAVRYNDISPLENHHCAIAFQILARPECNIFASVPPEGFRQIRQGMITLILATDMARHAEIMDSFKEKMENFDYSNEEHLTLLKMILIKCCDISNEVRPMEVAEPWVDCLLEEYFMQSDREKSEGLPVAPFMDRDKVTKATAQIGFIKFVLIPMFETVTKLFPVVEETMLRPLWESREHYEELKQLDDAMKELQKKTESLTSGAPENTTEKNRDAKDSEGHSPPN
# human PDE9A = human PDE9A (Homo sapiens, UniProt O76083); settings: concentrations of up to 100 micromolar; cited from earlier work
# Sequence of human PDE9A (O76083 whole entry): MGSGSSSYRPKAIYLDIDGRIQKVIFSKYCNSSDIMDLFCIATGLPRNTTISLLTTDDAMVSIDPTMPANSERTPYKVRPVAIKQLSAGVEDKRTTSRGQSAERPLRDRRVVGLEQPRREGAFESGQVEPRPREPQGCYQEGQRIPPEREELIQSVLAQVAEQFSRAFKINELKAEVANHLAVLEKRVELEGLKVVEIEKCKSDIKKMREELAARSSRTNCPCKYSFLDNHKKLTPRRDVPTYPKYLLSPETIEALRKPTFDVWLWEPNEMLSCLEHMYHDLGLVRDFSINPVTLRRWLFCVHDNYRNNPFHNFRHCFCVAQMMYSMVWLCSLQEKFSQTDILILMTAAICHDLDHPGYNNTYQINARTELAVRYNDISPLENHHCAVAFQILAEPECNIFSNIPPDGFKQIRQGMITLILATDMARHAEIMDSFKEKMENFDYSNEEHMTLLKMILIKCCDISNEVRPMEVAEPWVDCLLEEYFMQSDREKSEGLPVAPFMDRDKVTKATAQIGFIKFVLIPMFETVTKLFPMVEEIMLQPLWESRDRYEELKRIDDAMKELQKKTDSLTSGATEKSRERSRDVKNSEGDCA
smiles,measurement,setting,value
CC(C)Cn1c(=O)n(C)c(=O)c2[nH]cnc21 [IBMX],inhibition of murine PDE9A,Murine PDE9A,not inhibited
same,inhibition on the isolated enzyme,human PDE9A,no inhibition
